Measured values as given in US20170224653A1, “TLR-INDEPENDENT SMALL MOLECULE ADJUVANTS” (The Scripps Research Institute, priority 2014, published 2017).

Assays:
TLR ligands = assay: Mechanistic studies: responses to TLR ligands; type: cell-based; details: TLR ligands including neoseptin-3
Cyld = target: T1, Cyld (Homo sapiens, UniProt Q9NQC7); assay: In vitro assay of Cyld activity; type: biochemical
T1 sequence (Q9NQC7 1-956): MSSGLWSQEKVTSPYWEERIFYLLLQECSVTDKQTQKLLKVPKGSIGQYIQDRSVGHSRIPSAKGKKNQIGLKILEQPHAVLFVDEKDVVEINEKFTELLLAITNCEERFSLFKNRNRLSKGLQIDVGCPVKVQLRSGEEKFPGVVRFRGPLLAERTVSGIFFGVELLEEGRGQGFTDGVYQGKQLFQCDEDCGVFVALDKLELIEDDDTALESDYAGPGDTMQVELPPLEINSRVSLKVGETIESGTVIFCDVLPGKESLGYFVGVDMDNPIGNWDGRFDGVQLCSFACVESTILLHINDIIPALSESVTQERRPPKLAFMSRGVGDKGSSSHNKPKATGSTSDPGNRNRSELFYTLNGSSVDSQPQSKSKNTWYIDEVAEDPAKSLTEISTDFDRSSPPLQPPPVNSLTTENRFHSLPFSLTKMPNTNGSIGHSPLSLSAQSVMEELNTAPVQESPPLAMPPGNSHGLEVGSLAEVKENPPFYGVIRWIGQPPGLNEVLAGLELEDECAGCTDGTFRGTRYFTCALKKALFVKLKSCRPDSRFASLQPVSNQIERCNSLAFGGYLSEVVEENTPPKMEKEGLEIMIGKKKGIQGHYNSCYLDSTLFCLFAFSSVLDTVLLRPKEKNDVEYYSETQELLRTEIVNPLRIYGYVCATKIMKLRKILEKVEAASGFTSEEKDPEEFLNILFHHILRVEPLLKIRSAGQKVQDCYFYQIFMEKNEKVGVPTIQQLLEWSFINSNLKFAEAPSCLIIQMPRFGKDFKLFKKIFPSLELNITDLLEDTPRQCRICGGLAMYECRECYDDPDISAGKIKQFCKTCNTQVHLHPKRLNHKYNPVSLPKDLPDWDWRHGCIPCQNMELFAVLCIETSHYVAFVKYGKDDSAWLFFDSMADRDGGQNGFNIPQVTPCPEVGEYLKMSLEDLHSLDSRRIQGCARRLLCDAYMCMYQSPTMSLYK

THP-1 cells = assay: TNF-α production upon compound treatment of THP-1 cells; type: cell-based; details: FIG. 2
mouse macrophages = assay: TNF-α production in macrophages from mice with germline mutations or knockouts of TLR and signaling genes; type: cell-based
From the text: Induced TNF-α production was established with the use of macrophages from mice bearing germline genetic defects or knockouts of each of the genes encoding the TLRs or their downstream signaling molecules uniquely available in the laboratories of Professor Bruce Beutler, (University of Texas Southwestern Medical Center, Dallas, Tex.). See, (a) mutagenetix.utsouthwestern.edu.; (b) Arnold et al., (2012) ENU-induced phenovariance in mice: Inferences from 587 mutations. BMC Res. Notes. 5, 577-0500-5-577.

C57BL/6J mice = assay: Adjuvant effect with ovalbumin, intramuscular immunization, serum OVA-specific IgG by ELISA; type: in vivo, mouse
Description: In FIG. 3, adjuvants were mixed with ovalbumin (OVA, 100 μg) and injected intramuscularly into C57BL/6J mice at the indicated doses. Two immunizations were administered with a booster given at 7 days.
FIG. 4 provides a series of graphs that show anti-olvalbumin titers at 14 days post immunization using adjuvants with ovalbumin (OVA, 100 μg) and injected intramuscularly into C57BL/6J mice. The adjuvants used were Compound 125-03, neoseptin-3 (below), LPS, MPLA (monophosphoryl lipid A from […]

[1] = Overt toxicity when used as an adjuvant at maximum doses; type: in vivo; details: maximum doses capable of administration, compared with LPS
TLR4 = target: T2, TLR4 (Mus musculus, UniProt Q9JHF9+Q9QUK6); assay: TLR4 agonist activity, stimulated TNF-alpha release in mouse macrophages; type: cell-based; details: for TLR4 agonist efficacy: relative to neoseptin-1 or LPS
T2 construct: measuring the stimulated TNF-alpha release in mouse macrophages; endogenous in cells; host or cells: mouse macrophages
T2 sequence (Q9QUK6 26-835): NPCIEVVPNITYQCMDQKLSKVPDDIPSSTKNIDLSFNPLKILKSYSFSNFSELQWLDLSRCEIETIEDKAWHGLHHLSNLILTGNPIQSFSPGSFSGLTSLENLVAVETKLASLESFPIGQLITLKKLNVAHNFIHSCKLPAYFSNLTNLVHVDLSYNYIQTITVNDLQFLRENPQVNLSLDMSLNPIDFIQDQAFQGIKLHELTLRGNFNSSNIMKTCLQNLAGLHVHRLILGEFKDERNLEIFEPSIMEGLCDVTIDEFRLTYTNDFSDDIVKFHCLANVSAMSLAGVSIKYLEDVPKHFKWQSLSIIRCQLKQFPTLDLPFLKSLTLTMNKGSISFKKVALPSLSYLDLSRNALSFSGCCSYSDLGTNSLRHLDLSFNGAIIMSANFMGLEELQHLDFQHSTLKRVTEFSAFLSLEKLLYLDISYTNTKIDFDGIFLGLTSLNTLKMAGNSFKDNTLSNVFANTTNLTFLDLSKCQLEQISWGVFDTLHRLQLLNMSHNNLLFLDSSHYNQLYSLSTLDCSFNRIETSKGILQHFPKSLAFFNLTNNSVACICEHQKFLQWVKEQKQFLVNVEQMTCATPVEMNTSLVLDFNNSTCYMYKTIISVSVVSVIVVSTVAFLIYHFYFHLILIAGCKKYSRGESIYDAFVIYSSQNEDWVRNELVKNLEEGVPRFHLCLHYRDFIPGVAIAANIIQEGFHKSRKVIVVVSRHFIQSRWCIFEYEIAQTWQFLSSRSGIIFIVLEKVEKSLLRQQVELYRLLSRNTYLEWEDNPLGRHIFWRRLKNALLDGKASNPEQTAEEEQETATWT
T2 sequence (Q9JHF9 19-160): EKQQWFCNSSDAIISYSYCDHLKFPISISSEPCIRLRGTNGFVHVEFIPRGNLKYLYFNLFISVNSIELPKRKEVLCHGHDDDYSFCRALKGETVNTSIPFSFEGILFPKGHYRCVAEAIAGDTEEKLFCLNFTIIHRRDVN
From the text: In efforts to improve the TLR4 agonist activity of an initial screening lead, neoseptin-1 (below), measuring the stimulated TNF-alpha release in mouse macrophages, Compound 125-03, used herein as illustrative of the contemplated compounds, emerged as a key compound capable of stimulating the immune response (below). […] [TLRs […] have been lost from the mouse genome, and TLRs 11, 12 and 13 have been lost from the human genome. Beutler, Blood, 113:1399-1407 (2009).]

| Compound | effect on responses to TLR ligands (TLR ligands) | effect on Cyld activity (Cyld) | release of TNF-alpha from differentiated human THP-1 cells (THP-1 cells) | TLR dependence of stimulated TNF-alpha production (mouse macrophages; macrophages from mice with disabling mutations or knockouts of TLR genes, FIG. 1) | stimulating the release of TNF-alpha in mouse macrophages (mouse macrophages; mouse macrophages) | adjuvant activity, serum OVA-specific IgG (C57BL/6J mice; OVA 100 μg, intramuscular, booster at 7 days, day 35 post-immunization, FIG. 3) | adjuvant activity compared with alum (C57BL/6J mice; anti-ovalbumin titers, 14 days post immunization, concentrations used, FIG. 4) | overt toxicity [1] | TLR4 agonist efficacy (TLR4) | TLR4 agonism (TLR4) | concentration needed for an antibody response similar to Compound 125-03 (C57BL/6J mice; at fourteen days) |
| --- | --- | --- | --- | --- | --- | --- | --- | --- | --- | --- | --- |
| O=C(NCCCc1ccccc1)c1ccc(NC(=O)c2cc3ccccc3o2)c(OCCc2ccc(O)cc2)c1 [Compound 125-03, N-(2-(4-Hydroxyphenethoxy)-4-((3-phenylpropyl)-carbamoyl)phenyl)benzofuran-2-carboxamide] | markedly increased responses to TLR ligands | directly inhibits Cyld activity | dose dependent activity | independent of the TLRs including TLR4/MD-2 | active | robust, dose-dependent adjuvant activity | more effective than alum | did not display the overt toxicity |  |  |  |
| N[C@@H](Cc1ccccc1)C(=O)Nc1ccc(C(=O)N[C@@H](CCc2ccccc2)C(=O)O)cc1CCc1ccc(O)cc1 [MM-1-88] |  |  |  |  |  |  |  |  | significant enhancement in TLR4 agonist efficacy |  |  |
| CC(C)(C)OC(=O)[C@H](CCc1ccccc1)NC(=O)c1ccc(N)c(CCc2ccc(O)cc2)c1 [neoseptin-3, reference compound] |  |  | not active in human cells |  |  |  |  |  | nearly matching the efficacy of LPS | TLR4-agonist | about twice the concentration |
